# Results from paper PMC10861560, “Exploiting epigenetic targets to overcome taxane resistance in prostate cancer” (Cell Death & Disease, 2024).
# Target: T1, ABCB1 (MDR1) (Homo sapiens, UniProt P08183)
# T1 construct: endogenous full-length protein in intact Du145-DtxR cells, detected by western blot after heat shock
# Assay: cellular thermal shift assay (CETSA), western blot
# Type: cell-based
# Conditions: 5 µM, intact Du145-DtxR cells, 1 h at 37 °C, heat shock 44-52 °C; positive control
# T1 sequence (P08183 whole entry): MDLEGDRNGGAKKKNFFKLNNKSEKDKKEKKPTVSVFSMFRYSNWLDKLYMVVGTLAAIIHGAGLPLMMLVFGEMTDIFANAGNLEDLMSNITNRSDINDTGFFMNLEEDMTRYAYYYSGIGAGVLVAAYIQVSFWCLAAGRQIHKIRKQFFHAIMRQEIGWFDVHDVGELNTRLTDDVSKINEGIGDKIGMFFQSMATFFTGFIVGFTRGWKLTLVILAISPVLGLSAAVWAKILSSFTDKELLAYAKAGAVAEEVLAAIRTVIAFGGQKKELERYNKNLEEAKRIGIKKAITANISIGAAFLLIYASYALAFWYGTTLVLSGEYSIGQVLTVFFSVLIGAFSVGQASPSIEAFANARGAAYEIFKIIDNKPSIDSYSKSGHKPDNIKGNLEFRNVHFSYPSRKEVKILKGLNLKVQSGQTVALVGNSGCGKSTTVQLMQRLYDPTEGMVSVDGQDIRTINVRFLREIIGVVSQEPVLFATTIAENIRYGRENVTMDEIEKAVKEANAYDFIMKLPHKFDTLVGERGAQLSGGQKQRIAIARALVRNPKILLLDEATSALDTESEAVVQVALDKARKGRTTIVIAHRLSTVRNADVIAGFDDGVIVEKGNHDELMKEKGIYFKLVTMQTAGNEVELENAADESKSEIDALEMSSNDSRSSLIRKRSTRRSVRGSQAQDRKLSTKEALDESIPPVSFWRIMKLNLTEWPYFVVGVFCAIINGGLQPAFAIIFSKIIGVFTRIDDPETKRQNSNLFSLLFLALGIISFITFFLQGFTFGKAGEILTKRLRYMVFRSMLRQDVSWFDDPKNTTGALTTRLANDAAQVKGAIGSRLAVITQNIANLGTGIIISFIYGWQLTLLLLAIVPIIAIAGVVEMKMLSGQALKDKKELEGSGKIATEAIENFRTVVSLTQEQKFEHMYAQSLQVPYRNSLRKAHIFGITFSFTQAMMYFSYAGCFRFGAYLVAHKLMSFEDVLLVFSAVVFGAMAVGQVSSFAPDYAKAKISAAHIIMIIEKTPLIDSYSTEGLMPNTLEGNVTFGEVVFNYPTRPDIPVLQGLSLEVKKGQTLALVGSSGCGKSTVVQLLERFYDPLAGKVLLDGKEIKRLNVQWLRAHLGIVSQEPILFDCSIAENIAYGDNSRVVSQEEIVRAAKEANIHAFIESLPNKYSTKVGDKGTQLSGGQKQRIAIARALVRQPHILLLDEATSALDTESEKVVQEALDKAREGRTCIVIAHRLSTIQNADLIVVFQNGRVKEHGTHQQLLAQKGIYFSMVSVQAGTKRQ
smiles,measurement,value
O[C@@H](COc1cccc2ncccc12)CN1CCN([C@@H]2c3ccccc3[C@@H]3[C@H](c4ccccc42)C3(F)F)CC1 [Zosuquidar],"cellular thermal shift assay (CETSA), western blot",it showed an ABCB1-binding compared to DMSO (Fig. 3H)
